Results from patent publication US4474961A, “1,10[8,9-Benz]phenanthroline” (Development Finance Corporation of New Zealand, priority 1982, dated 1984).

Tests used:
[1] = test system: murine L1210 leukaemia cells; assay: L1210 in vitro, growth of cultured murine leukaemia cells; type: cell-based; conditions: Mus musculus, concentration that reduces counted number of leukaemia cells by 50% over 70 hours, read-out: ID50 (the source's name)
Source text: L1210 in vitro--The culture methods used are described in detail elsewhere (B. C. Baguley and R. Nash, Europ.J.Cancer, 17, 671-679 (1981). Acceptable reproducibility of data depends critically upon the maintenance of optimal culture conditions. L1210 cells were initially obtained from Dr. I. Wodinsky, Arthur D. Little Inc., Boston, U.S.A., under the auspices of the National Cancer Institute.
ID50 --the nanomolar concentration of drug which when added to cultures of murine L1210 leukaemia cells over a period of 70 hours, reduces the resultant counted number of leukaemia cells by 50% (B. C. Baguley and R. Nash, Europ.J.Cancer 17, 671-679 (1981).

P388 leukaemia = assay: P388 in vivo, life span of mice bearing intraperitoneal P388 leukaemia; set-up: species or system mice (F1 hybrid, DBA-2 male×C57 B1 female); conditions: for ILS (percentage increase in life span): at optimal dose, days 1, 5 and 9, controls survive 11 days on average, >20% statistically significant; for OD (O.D., optimal drug dose): solution in 0.1 ml of 30% v/v ethyl alcohol in water on days 1, 5 and 9, soluble acid addition salt
Source text: These have been shown by studies at the National Cancer Institute, U.S.A. to be useful for detecting agents with antitumor activity against clinical cancer (A. Goldin, J. M. Venditti, J. S. MacDonald, F. M. Mugia, J. E. Henney and V. T. De Vita, Europ.J. Cancer 17, 129-142, (1981). The abbreviations given in Table II are:
P388 in vivo--Tumour P388 cells were obtained as frozen stocks from Mason Research Inc., U.S.A. and passaged intraperitoneally according to standard methods (Cancer Chemother. Rep. 3, Part 3, page 9, 1972) in DBA-2 mice of either sex. Groups of six F1 hybrid mice (DBA-2 male×C57 B1 female, g weight 20±1 g) were injected intraperitoneally with 10^6 cells on day 0.
O.D.--optimal drug dose, in milligrams per kilogram, administered as a solution in 0.1 ml of 30% v/v ethyl alcohol in water on days 1, 5 and 9 after tumour inoculation. The drug is administered as a soluble acid addition salt.
ILS--percentage increase in life span of treated animals over that of groups of control animals injected with tumour alone. The average survival of control mice was 11 days. Values of ILS greater than 20% are considered statistically significant.

tumour = conditions: earlier work, literature; cited from earlier work

Row | Compound | IC50 [1] | Active (P388 leukaemia) | ILS (percentage increase in life span) (P388 leukaemia) | OD (O.D., optimal drug dose) (P388 leukaemia) | antitumour effect (tumour)
1 | COc1cc(NS(C)(=O)=O)ccc1Nc1c2ccccc2nc2c1ccc1cccnc12 [Compound 1] | 26 nM | Yes | 109% | 13.3 milligrams per kilogram | –
2 | COP(=O)(Nc1ccc(Nc2c3ccccc3nc3c2ccc2cccnc23)cc1)OC [Compound 5] | 31 nM | Yes | 64% | 45 milligrams per kilogram | –
3 | CS(=O)(=O)Nc1ccc(Nc2c3ccccc3nc3ccccc23)cc1 [AMSA, 4'-(9-acridinylamino) methanesulphonanilide] | – | – | – | – | marked antitumour effect
4 | CS(=O)(=O)Nc1ccc(Nc2c3ccccc3nc3c2ccc2cccnc23)cc1 [Compound 2] | 58 nM | Yes | 30% | 150 milligrams per kilogram | –

The next lines start with results.

Row | IC50 [1] | Compound | Active (P388 leukaemia) | ILS (percentage increase in life span) (P388 leukaemia) | OD (O.D., optimal drug dose) (P388 leukaemia) | antitumour effect (tumour)
5 | 46 nM | COC(=O)Nc1ccc(Nc2c3ccccc3nc3c2ccc2cccnc23)c(OC)c1 [Compound 3] | Yes | 95% | 45 milligrams per kilogram | –
6 | 18 nM | COC(=O)Nc1ccc(Nc2c3ccccc3nc3c2ccc2cccnc23)cc1 [Compound 4] | Yes | 64% | 30 milligrams per kilogram | –
